The values that follow come from ChEMBL document CHEMBL1153935, “4,4'-Dihydroxy-trans-stilbene, a resveratrol analogue, exhibited enhanced antioxidant activity and cytotoxicity” (Bioorg Med Chem, 2009).

The source made the active and inactive calls. The rule behind the calls is not given here.

Assay [1] deals with Erythrocyte. Kind of assay: Inhibition of Fe(2+)/ascorbate-induced lipid peroxidation in human erythrocyte ghosts assessed as inhibition of malondialdehyde formation per mg of protein at 3 uM after 30 mins. In kind it is functional.
Assay [2] concerns Erythrocyte. Kind of assay: Inhibition of Fe(2+)/ascorbate-induced lipid peroxidation in human erythrocyte ghosts assessed as inhibition of malondialdehyde formation per mg of protein at 2 uM after 30 mins. The class given is functional.
Assay [3] has as its system HL-60. The experiment in a line: Cytotoxicity against human HL60 cells after 48 hrs by MTT assay. In kind it is functional, cell-based. As to conditions: for IC50: HL-60, 48 h.
Assay [4] relates to Erythrocyte. The experiment in a line: Inhibition of Fe(2+)/ascorbate-induced lipid peroxidation in human erythrocyte ghosts assessed as inhibition of malondialdehyde formation per mg of protein at 1 uM after 30 mins. In kind it is functional.
In assay [5] the test system is Erythrocyte. The experiment in a line: Inhibition of Fe(2+)/ascorbate-induced lipid peroxidation in human erythrocyte ghosts assessed as increase in inhibition period. The class given is functional, cell-based.
Assay [6] concerns Erythrocyte. Kind of assay: Inhibition of Fe(2+)/ascorbate-induced lipid peroxidation in human erythrocyte ghosts assessed as inhibition of malondialdehyde formation at 5 uM. The class given is functional, cell-based.
Assay [7] concerns Erythrocyte. The experiment in a line: Inhibition of Fe(2+)/ascorbate-induced lipid peroxidation in human erythrocyte ghosts assessed as inhibition of malondialdehyde formation at 1 to 5 uM. In kind it is functional, cell-based.
The test system of assay [8] is HL-60. The experiment in a line: Cytotoxicity against human HL60 cells at 20 uM after 48 hrs by MTT assay. The class given is functional. A general note: Formazan colour is commonly taken as a measure of viable cells.
Assay [9] concerns HL-60. The experiment in a line: Cytotoxicity against human HL60 cells at 10 uM after 48 hrs by MTT assay. In kind it is functional.
Assay [10] relates to HL-60. The experiment in a line: Cytotoxicity against human HL60 cells at 30 uM after 48 hrs by MTT assay. In kind it is functional.

Turning to `Oc1ccc(/C=C/c2ccc(O)cc2)cc1` [TRANS-4,4'-DIHYDROXYSTILBENE], the results for the Activity in the assay on Erythrocyte [1], in the assay with Erythrocyte [2] and in the assay with Erythrocyte [4] were 0.17 nmol, 0.45 nmol and 0.8 nmol, respectively. This compound also came in with an IC50 in the assay on HL-60 [3] of 6.5 µM.

With `COc1cc([C@@H]2c3cc4c(cc3[C@@H](O[C@@H]3O[C@@H]5CO[C@@H](C)O[C@H]5[C@H](O)[C@H]3O)[C@H]3COC(=O)[C@H]23)OCO4)cc(OC)c1O` [ETOPOSIDE], inhibition with HL-60 [3] was half-maximal at 3.3 µM (IC50).

As to `Oc1ccc(/C=C/c2cc(O)cc(O)c2)cc1` [RESVERATROL], the Activity was 0.18 nmol in the assay on Erythrocyte [1]; 0.61 nmol in the assay on Erythrocyte [2]; “Dose-dependent effect” in the assay with Erythrocyte [5]; “Dose-dependent effect” in the assay on HL-60 [3]; “Dose-dependent effect” in the assay on Erythrocyte [7]; 72% with HL-60 [8]. For the same compound, the values for the Activity in the assay on Erythrocyte [4], in the assay with HL-60 [9] and in the assay on HL-60 [10] were 1.33 nmol, 83% and 43%, respectively. Moreover, the result in the assay with Erythrocyte [6] was Active. In the assay on HL-60 [3], this compound showed an IC50 of 36.3 µM.

The term IC50 denotes the point on the concentration scale where inhibition reaches its midpoint. Low readings indicate higher potency, high ones lower potency.
